US9969742B2, “Imidazotriazinone compounds” (Ironwood Pharmaceuticals, Inc., priority 2012, dated 2018)
Where two headings read alike, the source gives them in different places.

Legend:
Assay type in all cases: biochemical
PDE1A = target: T1, PDE1A (Homo sapiens, UniProt P54750); experiment: Phosphodiesterase enzyme screening assay, PDE1A
T1 construct: purchased Reaction Biology Corporation, Malvern, Pa
Summary of the method: (§1)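 Compounds were tested on commercial human PDE enzymes using a fluorescent cGMP substrate at 4.0 μM, incubated for one hour at room temperature. Values are means of four wells versus controls.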

PDE9A2 = target: T2, PDE9A2 (Homo sapiens, UniProt O76083); experiment: Phosphodiesterase enzyme screening assay, PDE9A2
T2 construct: purchased Reaction Biology Corporation, Malvern, Pa
T2 sequence (O76083 1-533 isoform O76083-2): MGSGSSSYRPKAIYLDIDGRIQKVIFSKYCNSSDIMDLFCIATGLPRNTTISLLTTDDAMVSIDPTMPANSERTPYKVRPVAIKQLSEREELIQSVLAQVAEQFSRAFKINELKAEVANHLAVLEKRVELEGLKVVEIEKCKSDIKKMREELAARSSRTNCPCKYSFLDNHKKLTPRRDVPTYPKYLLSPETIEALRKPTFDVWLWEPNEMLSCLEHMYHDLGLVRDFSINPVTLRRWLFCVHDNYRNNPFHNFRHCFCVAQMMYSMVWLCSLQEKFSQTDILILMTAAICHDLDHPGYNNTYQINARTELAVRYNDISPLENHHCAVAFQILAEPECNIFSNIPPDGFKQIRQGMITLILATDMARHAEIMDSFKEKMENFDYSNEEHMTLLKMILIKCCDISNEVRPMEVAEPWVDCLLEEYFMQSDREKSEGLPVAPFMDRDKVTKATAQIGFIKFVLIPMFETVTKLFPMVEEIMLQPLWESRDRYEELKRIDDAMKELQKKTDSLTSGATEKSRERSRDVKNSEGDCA
Summary of the method: as §1

PDE1B = target: T3, PDE1B (Homo sapiens, UniProt Q01064); experiment: Phosphodiesterase enzyme screening assay, PDE1B
T3 construct: purchased Reaction Biology Corporation, Malvern, Pa
T3 sequence (Q01064 whole entry): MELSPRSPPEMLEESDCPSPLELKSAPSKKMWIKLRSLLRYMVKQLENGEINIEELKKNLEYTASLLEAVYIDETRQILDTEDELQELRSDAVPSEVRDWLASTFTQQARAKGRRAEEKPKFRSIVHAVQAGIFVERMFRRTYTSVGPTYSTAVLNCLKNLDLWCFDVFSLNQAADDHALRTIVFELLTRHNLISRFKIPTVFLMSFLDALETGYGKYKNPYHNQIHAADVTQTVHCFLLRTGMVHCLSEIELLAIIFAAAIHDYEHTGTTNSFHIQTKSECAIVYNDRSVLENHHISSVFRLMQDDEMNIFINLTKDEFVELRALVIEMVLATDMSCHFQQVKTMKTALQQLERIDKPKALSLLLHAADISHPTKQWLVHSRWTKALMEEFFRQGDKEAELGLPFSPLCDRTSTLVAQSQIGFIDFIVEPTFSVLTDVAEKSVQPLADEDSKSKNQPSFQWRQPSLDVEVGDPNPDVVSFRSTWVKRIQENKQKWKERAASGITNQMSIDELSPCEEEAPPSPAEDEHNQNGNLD
Summary of the method: as §1

[1] = ratio of IC50 values PDE1A vs PDE9A2, value greater than 1 indicates greater selectivity for PDE9A2
[2] = IC50 band, 4.0 μM cGMP substrate, 1 hour at R.T.
[3] = ratio of IC50 values PDE1B vs PDE9A2, value greater than 1 indicates greater selectivity for PDE9A2
[4] = ratio of IC50 values, value greater than 1 indicates greater selectivity for PDE9A2
[5] = Table 1, ratio of IC50 values, value greater than 1 indicates greater selectivity for PDE9A2
[6] = Table 1, 10 concentrations, 4.0 μM cGMP substrate, 1 hour at R.T., read-out: Band (PDE9A2 IC50)
[7] = ratio of IC50 values, PDE1A versus PDE9A2, value greater than 1 indicates greater selectivity for PDE9A2
[8] = ratio of IC50 values, PDE1B versus PDE9A2, value greater than 1 indicates greater selectivity for PDE9A2
[9] = ratio of IC50 values PDE1A / PDE9A2, value greater than 1 = greater selectivity for PDE9A2
[10] = 4.0 μM cGMP substrate, 1 hour at R.T., read-out: Band (PDE9A2 IC50)
[11] = ratio of IC50 values PDE1B / PDE9A2, value greater than 1 = greater selectivity for PDE9A2
[12] = Table 2, ratio of IC50 values, value greater than 1 indicates greater selectivity for PDE9A2

T1 sequence (P54750 whole entry): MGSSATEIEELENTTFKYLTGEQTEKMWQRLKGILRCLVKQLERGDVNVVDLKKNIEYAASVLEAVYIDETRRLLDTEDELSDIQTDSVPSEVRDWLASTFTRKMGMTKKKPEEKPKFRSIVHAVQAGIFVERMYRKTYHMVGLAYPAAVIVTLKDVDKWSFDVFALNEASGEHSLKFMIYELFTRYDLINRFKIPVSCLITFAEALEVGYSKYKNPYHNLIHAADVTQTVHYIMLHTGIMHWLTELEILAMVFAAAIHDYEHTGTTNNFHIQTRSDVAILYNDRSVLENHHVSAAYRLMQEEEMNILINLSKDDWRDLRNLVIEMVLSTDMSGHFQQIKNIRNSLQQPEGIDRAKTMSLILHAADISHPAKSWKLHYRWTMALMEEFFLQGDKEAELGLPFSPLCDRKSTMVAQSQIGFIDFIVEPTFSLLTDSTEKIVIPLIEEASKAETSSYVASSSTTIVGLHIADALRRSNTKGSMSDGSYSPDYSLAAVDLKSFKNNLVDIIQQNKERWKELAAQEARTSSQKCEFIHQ

Cc1ccc(F)cc1-c1ncc2c(=O)[nH]c(C3CN(Cc4nc5ccccn5n4)CC3C)nn12 (single isomer, unassigned; (+)) [(+)-2-((3,4-trans)-1-([1,2,4]triazolo[1,5-a]pyridin-2-ylmethyl)-4-methylpyrrolidin-3-yl)-7-(5-fluoro-2-methylphenyl)imidazo[5,1-f][1,2,4]triazin-4(3H)-one]
PDE1A selectivity (versus PDE9A2) (PDE1A; [1]): 487
IC50 (PDE9A2; [2]): < 1000 nM
PDE1B selectivity (versus PDE9A2) (PDE1B; [3]): 473

CC1CN(Cc2ncno2)CC1c1nn2c(C3CCOCC3)ncc2c(=O)[nH]1 (single isomer, unassigned; (+)) [(+)-2-((3,4-trans)-1-((1,2,4-oxadiazol-5-yl)methyl)-4-methylpyrrolidin-3-yl)-7-(tetrahydro-2H-pyran-4-yl)imidazo[5,1-f][1,2,4]triazin-4(3H)-one]
PDE1A selectivity (versus PDE9A2) (PDE1A; [4]): 650
IC50 (PDE9A2; read-out: Band (PDE9A2 IC50)): < 1000 nM
PDE1B selectivity (versus PDE9A2) (PDE1B; [4]): 1528

CC1CN(Cc2ccccc2C2CC2)CC1c1nn2c(C3CCOCC3)ncc2c(=O)[nH]1 (single isomer, unassigned; (-)) [(−)-2-((3,4-trans)-1-(2-cyclopropylbenzyl)-4-methylpyrrolidin-3-yl)-7-(tetrahydro-2H-pyran-4-yl)imidazo[5,1-f][1,2,4]triazin-4(3H)-one]
PDE1A selectivity (versus PDE9A2) (PDE1A; [5]): 685
IC50 (PDE9A2; [6]): < 1000 nM
PDE1B selectivity (versus PDE9A2) (PDE1B; [5]): 505

CC1CN(Cc2ccccc2F)CC1c1nn2c(C3CCOCC3)ncc2c(=O)[nH]1 (single isomer, unassigned; (+)) [(+)-2-((3,4-trans)-1-(2-fluorobenzyl)-4-methylpyrrolidin-3-yl)-7-(tetrahydro-2H-pyran-4-yl)imidazo[5,1-f][1,2,4]triazin-4(3H)-one]
PDE1A selectivity (versus PDE9A2) (PDE1A; [5]): 300
IC50 (PDE9A2; [6]): < 1000 nM
PDE1B selectivity (versus PDE9A2) (PDE1B; [5]): 442

CC1CN(Cc2cn3ccccc3n2)CC1c1nn2c(C3CCC(F)(F)CC3)ncc2c(=O)[nH]1 (single isomer, unassigned; (+)) [(+)-7-(4,4-difluorocyclohexyl)-2-((3,4-trans)-1-(imidazo[1,2-a]pyridin-2-ylmethyl)-4-methylpyrrolidin-3-yl)imidazo[5,1-f][1,2,4]triazin-4(3H)-one]
PDE1A selectivity (versus PDE9A2) (PDE1A; [1]): 405
IC50 (PDE9A2; [2]): < 1000 nM
PDE1B selectivity (versus PDE9A2) (PDE1B; [3]): 1659

CC1CN(Cc2ccc(F)cc2)CC1c1nn2c(C3CCC(F)(F)CC3)ncc2c(=O)[nH]1 (single isomer, unassigned; (+)) [(+)-(4,4-difluorocyclohexyl)-2-((3,4-trans)-1-(4-fluorobenzyl)-4-methylpyrrolidin-3-yl)imidazo[5,1-f][1,2,4]triazin-4(3H)-one]
PDE1A selectivity (versus PDE9A2) (PDE1A; [5]): 1453
IC50 (PDE9A2; [6]): < 1000 nM
PDE1B selectivity (versus PDE9A2) (PDE1B; [5]): 2980

Cc1cc(F)c(F)cc1-c1ncc2c(=O)[nH]c(C3CN(Cc4cn5ccccc5n4)CC3C)nn12 (single isomer, unassigned; (+)) [(+)-7-(4,5-difluoro-2-methylphenyl)-2-((3,4-trans)-1-(imidazo[1,2-a]pyridin-2-ylmethyl)-4-methylpyrrolidin-3-yl)imidazo[5,1-f][1,2,4]triazin-4(3H)-one]
PDE1A selectivity (versus PDE9A2) (PDE1A; [7]): 2510
IC50 (PDE9A2; read-out: Band (PDE9A2 IC50)): < 1000 nM
PDE1B selectivity (versus PDE9A2) (PDE1B; [8]): 9350

CCc1ncc(CN2CC(C)C(c3nn4c(C5CCOCC5)ncc4c(=O)[nH]3)C2)cn1 (single isomer, unassigned; (+)) [(+)-2-((3,4-trans)-1-((2-ethylpyrimidin-5-yl)methyl)-4-methylpyrrolidin-3-yl)-7-(tetrahydro-2H-pyran-4-yl)imidazo[5,1-f][1,2,4]triazin-4(3H)-one]
PDE1A selectivity (versus PDE9A2) (PDE1A; [5]): 855
IC50 (PDE9A2; [6]): < 1000 nM
PDE1B selectivity (versus PDE9A2) (PDE1B; [5]): 1920

CC1CN(Cc2ccc3ccncc3c2)CC1c1nn2c(C3CCOCC3)ncc2c(=O)[nH]1 (single isomer, unassigned; (+)) [(+)-2-((3,4-trans)-1-(isoquinolin-7-ylmethyl)-4-methylpyrrolidin-3-yl)-7-(tetrahydro-2H-pyran-4-yl) imidazo [5,1-f] [1,2,4] triazin-4(3H)-one]
PDE1A selectivity (versus PDE9A2) (PDE1A; [5]): 223
IC50 (PDE9A2; [6]): < 1000 nM
PDE1B selectivity (versus PDE9A2) (PDE1B; [5]): 893

CC1CN(Cc2ccccc2)CC1c1nn2c(C3CCOCC3)ncc2c(=O)[nH]1 (single isomer, unassigned; (-)) [(−)-2-((3,4-trans)-1-benzyl-4-methylpyrrolidin-3-yl)-7-(tetr] [(−)-2-((3,4-trans)-1-benzyl-4-methylpyrrolidin-3-yl)-7-(tetrahydro-2H-pyran-4-yl)imidazo[1,5-f][1,2,4]triazin-4(3H)-one]
PDE1A selectivity (versus PDE9A2) (PDE1A; [5]): 465
IC50 (PDE9A2; [6]): < 1000 nM
PDE1B selectivity (versus PDE9A2) (PDE1B; [5]): 550

CC1CN(Cc2cccnc2)CC1c1nn2c(-c3cccc(F)c3)ncc2c(=O)[nH]1 (single isomer, unassigned; (+)) [(+)-7-(3-fluorophenyl)-2-((3,4-trans)-4-methyl-1-(pyridin-3-ylmethyl)pyrrolidin-3-yl)imidazo[5,1-f][1,2,4]triazin-4(3H)-one]
PDE1A selectivity (versus PDE9A2) (PDE1A; [7]): 15
IC50 (PDE9A2; read-out: Band (PDE9A2 IC50)): < 1000 nM
PDE1B selectivity (versus PDE9A2) (PDE1B; [8]): 37

CC1CN(Cc2ccc(F)c(C#N)c2)CC1c1nn2c(C3CCOCC3)ncc2c(=O)[nH]1 (single isomer, unassigned; (+)) [(+)-2-fluoro-5-(((3,4-trans)-3-methyl-4-(4-oxo-7-(tetrahydro-2H-pyran-4-yl)-3,4-dihydroimidazo[5,1-f][1,2,4]triazin-2-yl)pyrrolidin-1-yl)methyl)benzonitrile]
PDE1A selectivity (versus PDE9A2) (PDE1A; [9]): 61
IC50 (PDE9A2; [10]): < 1000 nM
PDE1B selectivity (versus PDE9A2) (PDE1B; [11]): 58

CC1CN(C)CC1c1nn2c(C3CCOCC3)ncc2c(=O)[nH]1 (single isomer, unassigned; (+)) [(+)-((3,4-trans)-1,4-dimethylpyrrolidin-3-yl)-7-(tetrahydro-2H-pyran-4-yl)imidazo[5,1-f][1,2,4]triazin-4(3H)-one]
PDE1A selectivity (versus PDE9A2) (PDE1A; [5]): 75
IC50 (PDE9A2; [6]): < 1000 nM
PDE1B selectivity (versus PDE9A2) (PDE1B; [5]): 121

CC1CN(Cc2ccc3ncccc3c2)CC1c1nn2c(C3CCOCC3)ncc2c(=O)[nH]1 (single isomer, unassigned; (+)) [(+)-2-((3,4-trans)-4-methyl-1-(quinolin-6-ylmethyl)pyrrolidin-3-yl)-7-(tetrahydro-2H-pyran-4-yl)imidazo[5,1-f][1,2,4]triazin-4(3H)-one]
PDE1A selectivity (versus PDE9A2) (PDE1A; [5]): 520
IC50 (PDE9A2; [6]): < 1000 nM
PDE1B selectivity (versus PDE9A2) (PDE1B; [5]): 1525

CC1CN(Cc2cnn3ccccc23)CC1c1nn2c(C3CCOCC3)ncc2c(=O)[nH]1 (single isomer, unassigned; (+)) [(+)-2-((3,4-trans)-4-methyl-1-(pyrazolo[1,5-a]pyridin-3-ylmethyl)pyrrolidin-3-yl)-7-(tetrahydro-2H-pyran-4-yl)imidazo[5,1-f][1,2,4]triazin-4(3H)-one]
PDE1A selectivity (versus PDE9A2) (PDE1A; [4]): 3240
IC50 (PDE9A2; read-out: Band (PDE9A2 IC50)): < 1000 nM
PDE1B selectivity (versus PDE9A2) (PDE1B; [4]): 1010

CC1CN(Cc2ncccn2)CC1c1nn2c(C3CCCC3)ncc2c(=O)[nH]1 (single isomer, unassigned; (+)) [(+)-7-cyclopentyl-2-((3,4-trans)-4-methyl-1-(pyrimidin-2-ylmethyl)pyrrolidin-3-yl)imidazo[5,1-f][1,2,4]triazin-4(3H)-one]
PDE1A selectivity (versus PDE9A2) (PDE1A; [7]): 60
IC50 (PDE9A2; read-out: Band (PDE9A2 IC50)): < 1000 nM
PDE1B selectivity (versus PDE9A2) (PDE1B; [8]): 45

Cc1ccncc1-c1ncc2c(=O)[nH]c(C3CN(Cc4ccccc4)CC3C)nn12 (single isomer, unassigned; (+)) [(+)-2-((3,4-trans)-1-benzyl-4-methylpyrrolidin-3-yl)-7-(4-methylpyridin-3-yl)imidazo[5,1-f][1,2,4]triazin-4(3H)-one]
PDE1A selectivity (versus PDE9A2) (PDE1A; [7]): 148
IC50 (PDE9A2; read-out: Band (PDE9A2 IC50)): < 1000 nM
PDE1B selectivity (versus PDE9A2) (PDE1B; [8]): 379

COc1cncc(CN2CC(C)C(c3nn4c(C5CCOCC5)ncc4c(=O)[nH]3)C2)c1 (single isomer, unassigned; (+)) [(+)-2-((3,4-trans)-1-((5-methoxypyridin-3-yl)methyl)-4-methylpyrrolidin-3-yl)-7-(tetrahydro-2H-pyran-4-yl)imidazo[5,1-f][1,2,4]triazin-4(3H)-one]
PDE1A selectivity (versus PDE9A2) (PDE1A; [9]): 1060
IC50 (PDE9A2; [10]): < 1000 nM
PDE1B selectivity (versus PDE9A2) (PDE1B; [11]): 1780

CC1CN(Cc2nccc(C(F)(F)F)n2)CC1c1nn2c(C3CCOCC3)ncc2c(=O)[nH]1 (single isomer, unassigned; (+)) [(+)-2-((3,4-trans)-4-methyl-1-((4-(trifluoromethyl)pyrimidin-2-yl)methyl)pyrrolidin-3-yl)-7-(tetrahydro-2H-pyran-4-yl)imidazo[5,1-f][1,2,4]triazin-4(3H)-one]
PDE1A selectivity (versus PDE9A2) (PDE1A; [12]): 585
IC50 (PDE9A2; Table 2, 10 concentrations, 4.0 μM cGMP substrate, 1 hour at R.T., read-out: Band (PDE9A2 IC50)): < 1000 nM
PDE1B selectivity (versus PDE9A2) (PDE1B; [12]): 566
